Results taken from patent US4857455A, “Method for the determination of peroxidase using fluorogenic substrates” (Syntex (U.S.A) Inc., priority 1982, dated 1989).
Several values for one entry are separate records, joined by “and”; a condition that tells them apart may be missing. Equal values may be shown once. Blank lines part the entries; values can stand above or below the molecule they belong to.

What was measured:
Type in all cases: biochemical, horseradish
[1] = biological target: T1, horse radish peroxidase (Armoracia rusticana, UniProt P00433); test: change in fluorescence of substrate with HRP and hydrogen peroxide over 60 seconds; conditions: substrate 800 μl, H2O2 100 μl, 60 second interval, pH 8
T1 sequence (P00433 31-353): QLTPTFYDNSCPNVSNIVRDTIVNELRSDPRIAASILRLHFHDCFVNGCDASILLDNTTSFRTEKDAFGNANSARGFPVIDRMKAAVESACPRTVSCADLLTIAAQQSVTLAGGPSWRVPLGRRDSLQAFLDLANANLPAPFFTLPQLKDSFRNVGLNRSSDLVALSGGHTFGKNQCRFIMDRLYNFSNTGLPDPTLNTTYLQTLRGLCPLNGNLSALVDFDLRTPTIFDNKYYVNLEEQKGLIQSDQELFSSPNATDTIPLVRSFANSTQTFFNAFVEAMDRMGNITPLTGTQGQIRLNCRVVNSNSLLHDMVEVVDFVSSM
Protocol: (§1) In the next assay, the fluorogenic precursor of Example I was employed. […] An assay solution was prepared comprising the […] compound of Example I, hydrogen peroxide, horse radish peroxidase, and buffer (0.1M phosphate, pH 8.0) and the change in fluorescence in the solution determined over a 60 second interval. The substrate solution which was added was 3.9 mg/100 ml concentration in buffer, the hydrogen peroxide was 9.×10^-4 M, the HRP solution was 6.6 ng/ml containing 0.5 mgBSA/ml and the buffer was 0.1M phosphate, pH 8. The following table indicates the results.

[2] = system: horse radish peroxidase; test: as above; conditions: HRP solution (6.6 ng/ml) 0 μl, substrate 800 μl, H2O2 100 μl, buffer 100 μl; 60 second interval, pH 8
Protocol: as §1

[3] = biological target: T2, HRP (Armoracia rusticana, UniProt P00433); test: qualitative test as HRP substrate (generation of a fluorescent product with HRP and H2O2); conditions: with HRP and H2O2 in aqueous solution, result in words
T2 sequence (P00433 31-353): T1 sequence (P00433 31-353)
Protocol: The sample was filtered through a sintered glass filter to obtain a clear solution, the solvent evaporated and the residue dissolved in 5 ml DMF. The solution was then evaporated to dryness, dissolved in 1 ml. DMF, followed by a dilution with 4 ml buffer and an assay carried out as described previously employing 100 microliters of the substrate.

[4] = biological target: T3, HRP-antiPRP conjugate (Armoracia rusticana, UniProt P00433); test: microtiter plate PRP immunoassay with HRP-antiPRP conjugate and fluorogenic substrate; conditions: 10 minute incubation at 37° C.; for Fluorescence with PRP: 50 ng/ml PRP; for Fluorescence without PRP: PBS buffer instead of PRP
T3 construct: purchased Sigma
T3 sequence (P00433 31-338 limits assumed): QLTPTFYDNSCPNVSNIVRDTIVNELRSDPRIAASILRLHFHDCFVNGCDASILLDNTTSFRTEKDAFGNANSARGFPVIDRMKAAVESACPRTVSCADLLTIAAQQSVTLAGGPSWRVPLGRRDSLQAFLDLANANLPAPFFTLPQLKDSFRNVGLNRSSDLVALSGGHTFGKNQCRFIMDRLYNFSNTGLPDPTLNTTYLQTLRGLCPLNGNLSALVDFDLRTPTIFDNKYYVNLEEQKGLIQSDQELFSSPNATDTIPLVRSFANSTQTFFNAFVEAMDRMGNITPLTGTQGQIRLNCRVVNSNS
Protocol: Microtiter plate wells were coated with a solution (250 μl/well) of an amine modified glucose oxidase (1 to 190 dilution, 7.6 mg/ml stock solution) and antibodies to polyribosephosphate (1:2000 dilution in 60 mM carbonate buffer, pH 9.6). After standing overnight, the wells were washed with PBS containing 0.05% Tween 20 (W/V).
A stock solution was prepared of the fluorogenic substrate of Example II. A 3.8 mg/10 ml DMF solution (1.22 mM) was diluted 1:10 with PBS buffer immediately before use. A substrate mixture was prepared containing 500 μl of the above stock solution, 694 μl of 1.8M glucose, 400 μl of a stock catalase solution and the volume brought to 2 ml with PBS buffer. The stock catalase solution (3.1-4 mg/ml) was prepared by dialysing catalase (C-100 Sigma) in PBS pH 7.2.
The following protocol was then employed for the assay. Into each microtiter well coated with amino glucose oxidase (see copending application serial No. 398,505, filed July 15, 1982) and antiPRP was added 100 μl of 50 ng/ml PRP or 100 μl of PBS buffer (pH 7.2) and the mixture incubated for one hour at room temperature. At the end of this time, 50 μl of HRP-antiPRP conjugate was added followed by another one hour incubation. At the end of this time, 100 μl of a substrate mixture was added, followed by a 10 minute incubation at 37° C. with shaking, after which time 200 μl of the incubation mixture was diluted with 1.8 ml, of 0.1M phosphate buffer (pH 8.0) and the fluorescence read.

[5] = HRP-antiPRP dilution 0 (no conjugate)

Structure (SMILES): Nc1ccc(Oc2ccc3cc(C(=O)O)c(=O)oc3c2)cc1 [Example I, 3-carboxy-7-(4'-aminophenoxy)coumarin]
ΔF ([1]; HRP solution (6.6 ng/ml) 20 μl, buffer 80 μl): 11.0
ΔF ([1]; HRP solution (6.6 ng/ml) 50 μl, buffer 50 μl): 16.2
ΔF ([1]; HRP solution (6.6 ng/ml) 100 μl, buffer 0 μl): 29.7 and 30.4
ΔF [2]: 6.6

Structure (SMILES): Cc1cc(Oc2ccc3cc(C(=O)O)c(=O)oc3c2)ccc1N [Example II, 3-carboxy-7-(3'-methyl-4'-aminophenoxy)coumarin]
Fluorescence with PRP [4, 5]: 2.2
Fluorescence without PRP [4, 5]: 2.4
Fluorescence with PRP ([4]; HRP-antiPRP dilution 1:80): 79.5
Fluorescence without PRP ([4]; HRP-antiPRP dilution 1:80): 67.1
Fluorescence with PRP ([4]; HRP-antiPRP dilution 1:320): 31.8 and 29.6 and 32.5
Fluorescence without PRP ([4]; HRP-antiPRP dilution 1:320): 11.0 and 14.2 and 13.4
Fluorescence with PRP ([4]; HRP-antiPRP dilution 1:1280): 13.8
Fluorescence without PRP ([4]; HRP-antiPRP dilution 1:1280): 5.2

Structure (SMILES): Cc1cc(Oc2ccc3cc(C(=O)NCCS(=O)(=O)O)c(=O)oc3c2)ccc1N [Example IV, taurine derivative of 3-carboxy-7-(3'-methyl-4'-aminophenoxy)coumarin]
activity as HRP substrate [3]: useful as a HRP substrate

Structure (SMILES): O=C(O)CNc1ccc(Oc2ccc3cc(C(=O)O)c(=O)oc3c2)cc1 [Example III, 3-carboxy-7-(N-carboxymethyl 4'-aminophenoxy)coumarin]
activity as HRP substrate [3]: useful as an HRP substrate

Other lines, results leading:

activity as HRP substrate [3]: active as an HRP substrate
Structure (SMILES): Cc1cc(Oc2ccc3cc(C(=O)N[C@H]4C(O)O[C@H](CO)[C@@H](O)[C@@H]4O)c(=O)oc3c2)ccc1N (stereo partly shown) [Example V, glucosamine derivative of 3-carboxy-7-(3'-methyl-4'aminophenoxy)coumarin]

activity as HRP substrate [3]: active HRP substrate
Structure (SMILES): Cc1cc(Oc2ccc3cc(C(=O)O)c(=O)oc3c2)cc(Br)c1N [Example VI, 3-carboxy-7-(3'-methyl-4'-amino-5'-bromophenoxy)coumarin]
